Article PMC4011845, “Stereoselectivity of Isoflurane in Adhesion Molecule Leukocyte Function-Associated Antigen-1” (PLoS ONE, 2014)

Assays:
[1] = biological target: T1, leukocyte function-associated antigen-1 (LFA-1) (Homo sapiens, UniProt P20701); assay: cell-free LFA-1:ICAM-1 binding assay ([…] 1-AMA); fluorescence probe on the αL I domain; type: biochemical
T1 construct: gene ITGAL; αL I domain residues 128-307 (fluorescence); with integrin β2 subunit (LFA-1 heterodimer)

[2] = biological target: T2, leukocyte function-associated antigen-1 (LFA-1) αL I domain (Homo sapiens, UniProt P20701); assay: 1-aminoanthracene fluorescence displacement; supported by cell-based ICAM-1 binding inhibition
T2 construct: gene ITGAL; αL I domain wild type, residues 128-307 of the integrin αL subunit
T2 sequence (P20701 153-332): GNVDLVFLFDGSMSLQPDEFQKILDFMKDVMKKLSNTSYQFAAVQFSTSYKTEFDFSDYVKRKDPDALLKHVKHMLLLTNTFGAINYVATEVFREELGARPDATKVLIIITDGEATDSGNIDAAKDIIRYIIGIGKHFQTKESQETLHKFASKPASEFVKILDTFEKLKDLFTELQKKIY

T1 sequence (P20701 26-1090 limits assumed): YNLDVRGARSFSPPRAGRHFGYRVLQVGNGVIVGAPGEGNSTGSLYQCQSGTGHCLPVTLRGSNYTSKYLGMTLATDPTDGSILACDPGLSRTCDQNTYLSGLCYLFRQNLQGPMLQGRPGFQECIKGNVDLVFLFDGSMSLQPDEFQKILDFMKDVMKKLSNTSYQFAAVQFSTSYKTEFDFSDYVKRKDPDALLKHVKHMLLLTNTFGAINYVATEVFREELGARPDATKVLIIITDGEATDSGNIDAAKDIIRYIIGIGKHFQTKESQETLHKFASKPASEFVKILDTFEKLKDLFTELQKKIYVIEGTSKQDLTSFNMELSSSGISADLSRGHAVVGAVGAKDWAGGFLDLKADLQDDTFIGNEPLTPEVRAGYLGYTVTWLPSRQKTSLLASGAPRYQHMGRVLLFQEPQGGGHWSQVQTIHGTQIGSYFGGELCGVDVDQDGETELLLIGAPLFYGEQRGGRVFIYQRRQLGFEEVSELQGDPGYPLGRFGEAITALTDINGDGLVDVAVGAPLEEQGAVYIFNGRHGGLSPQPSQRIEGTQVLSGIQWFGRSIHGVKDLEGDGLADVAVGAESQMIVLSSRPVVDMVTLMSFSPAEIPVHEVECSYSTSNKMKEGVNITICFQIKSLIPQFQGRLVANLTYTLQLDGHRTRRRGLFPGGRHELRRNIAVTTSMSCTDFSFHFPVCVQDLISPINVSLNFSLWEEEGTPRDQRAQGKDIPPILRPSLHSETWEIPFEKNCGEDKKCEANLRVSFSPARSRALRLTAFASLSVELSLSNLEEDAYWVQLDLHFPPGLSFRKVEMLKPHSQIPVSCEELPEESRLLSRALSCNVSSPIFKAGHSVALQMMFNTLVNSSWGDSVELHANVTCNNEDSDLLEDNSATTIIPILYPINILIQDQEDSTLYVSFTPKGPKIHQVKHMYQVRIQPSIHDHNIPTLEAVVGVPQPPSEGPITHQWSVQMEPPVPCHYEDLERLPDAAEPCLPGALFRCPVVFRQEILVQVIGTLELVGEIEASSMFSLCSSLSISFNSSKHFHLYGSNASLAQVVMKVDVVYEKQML
T1 sequence (P05107 23-700 partner limits assumed): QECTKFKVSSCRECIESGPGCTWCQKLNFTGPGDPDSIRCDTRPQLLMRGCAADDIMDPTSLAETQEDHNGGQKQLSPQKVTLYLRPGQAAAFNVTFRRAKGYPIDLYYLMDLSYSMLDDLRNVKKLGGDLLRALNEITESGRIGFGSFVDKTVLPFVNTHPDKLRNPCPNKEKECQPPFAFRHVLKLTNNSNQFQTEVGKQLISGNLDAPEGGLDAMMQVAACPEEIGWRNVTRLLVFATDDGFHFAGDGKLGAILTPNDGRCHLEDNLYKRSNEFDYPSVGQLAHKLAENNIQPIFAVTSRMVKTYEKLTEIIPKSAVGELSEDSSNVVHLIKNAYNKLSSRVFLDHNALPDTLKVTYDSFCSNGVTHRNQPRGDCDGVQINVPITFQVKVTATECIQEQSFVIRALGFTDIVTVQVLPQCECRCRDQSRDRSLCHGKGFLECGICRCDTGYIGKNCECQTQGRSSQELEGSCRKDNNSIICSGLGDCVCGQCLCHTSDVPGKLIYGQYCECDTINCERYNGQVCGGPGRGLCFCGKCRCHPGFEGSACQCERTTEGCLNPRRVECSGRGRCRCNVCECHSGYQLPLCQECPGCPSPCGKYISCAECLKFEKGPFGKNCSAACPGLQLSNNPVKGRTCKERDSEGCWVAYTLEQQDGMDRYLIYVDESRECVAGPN

Row | Compound | cell-free LFA-1:ICAM-1 binding assay (10-25 μM 1-AMA); fluorescence probe on the [1] | Kd [2] [µM]
1 | Nc1cccc2cc3ccccc3cc12 [1-AMA, 1-aminoanthracene] | As shown in Figure 2A , 1-AMA inhibited the binding of LFA-1 to its ligand ICAM-1. | –
2 | FC(F)OC(Cl)C(F)(F)F (centres unmarked) [S-isoflurane] | – | 375
